According to patent US11471395B2, “Method for preventing aging with bioactive compound” (TCI CO., LTD., priority 2020, dated 2022):

What was measured:
Format in all cases: cell-based
[1] = tested on: Atg8 gene; assay: Anti-aging gene expression test in human fibroblasts (qPCR), Atg8 gene; conditions: 25 μg synthesized peptide per 1 ml medium, human fibroblasts (CCD-966SK), 24 h, 37° C.
Protocol: (§1) In order to confirm the effect of each of the amino acid sequences on gene expression in cells, human fibroblasts (CCD-966SK) and individual synthesized peptides were co-cultured, and then, gene expression in the cells was analyzed. 6 types of synthesized peptides were respectively subjected to cell experiments. In addition, the amino acid sequences of 6 types of synthesized peptides were respectively SEQ ID NO: 1, SEQ ID NO: 2, SEQ ID NO: 3, SEQ ID NO: 4, SEQ ID NO: 5 and SEQ ID NO: 6. The sequence numbers SEQ ID NO: 1 to SEQ ID NO: 6 will be referred to as groups. […]
(§2) For peptide experiment groups (corresponding to Experiment group A to Experiment group F), according to a proportion of 25 μg of synthesized peptide per 1 ml of cell culture medium, the human fibroblasts were cultured for 24 h at 37° C. […] In addition, the primers firstly reacted by a green fluorescent dye of SYBR green dye (Applied Biosystem), and quantification of gene expression was performed by a 2-ΔΔCt method. It should be noted that the gene expression in the drawings was shown in relative fold, ratio or percentage, where standard deviations were calculated by an STDEV formula of Excel software, and statistically significant differences were analyzed by one-tailed student t-test in the Excel software. […]

[2] = tested on: CCT7 gene; assay: Anti-aging gene expression test in human fibroblasts (qPCR), CCT7 gene; conditions: 25 μg synthesized peptide per 1 ml medium, human fibroblasts (CCD-966SK), 24 h, 37° C.
Protocol: as §1, §2

[3] = tested on: CCT5 gene; assay: Anti-aging gene expression test in human fibroblasts (qPCR), CCT5 gene; conditions: 25 μg synthesized peptide per 1 ml medium, human fibroblasts (CCD-966SK), 24 h, 37° C.
Protocol: as §1, §2

[4] = tested on: CCT6A gene; assay: Anti-aging gene expression test in human fibroblasts (qPCR), CCT6A gene; conditions: 25 μg synthesized peptide per 1 ml medium, human fibroblasts (CCD-966SK), 24 h, 37° C.
Protocol: as §1, §2

[5] = tested on: CCT2 gene; assay: Anti-aging gene expression test in human fibroblasts (qPCR), CCT2 gene; conditions: 25 μg synthesized peptide per 1 ml medium, human fibroblasts (CCD-966SK), 24 h, 37° C.
Protocol: as §1, §2

[6] = tested on: Pink1 gene; assay: Anti-aging gene expression test in human fibroblasts (qPCR), Pink1 gene; conditions: 25 μg synthesized peptide per 1 ml medium, human fibroblasts (CCD-966SK), 24 h, 37° C.
Protocol: as §1, §2

[7] = tested on: SIRT1 gene; assay: Anti-aging gene expression test in human fibroblasts (qPCR), SIRT1 gene; conditions: 25 μg synthesized peptide per 1 ml medium, human fibroblasts (CCD-966SK), 24 h, 37° C.
Protocol: as §1, §2

[8] = tested on: Ubl-5 gene; assay: Anti-aging gene expression test in human fibroblasts (qPCR), Ubl-5 gene; conditions: 25 μg synthesized peptide per 1 ml medium, human fibroblasts (CCD-966SK), 24 h, 37° C.
Protocol: as §1, §2

[9] = tested on: mitochondria activities of human fibroblasts (CCD-966SK); assay: Mitochondria activity test (JC-1 membrane potential, flow cytometry); conditions: 24 h, 37° C.
Protocol: Then, in order to confirm the effect of each of the amino acid sequences on mitochondria activities, human fibroblasts (CCD-966SK) and the individual peptides were co-cultured, and then, the mitochondrion activities was analyzed. 6 types of synthesized peptides were respectively subjected to mitochondria activity tests. In addition, the amino acid sequences of 6 types of synthesized peptides were respectively SEQ ID NO: 1, SEQ ID NO: 2, SEQ ID NO: 3, SEQ ID NO: 4, SEQ ID NO: 5 and SEQ ID NO: 6. The sequence numbers SEQ ID NO: 1 to SEQ ID NO: 6 will be referred to as groups.
For mitochondria activity tests, after human fibroblasts and samples to be tested (such as peptides or compositions) were co-cultured, then, co-cultured cells were treated by a mitochondria membrane potential detection kit (containing a JC-1 mitochondria coloring agent, purchased from BD). Mitochondria activity test groups were divided into 7 groups.
Firstly, each of the groups (Experiment group H to Experiment group M, and Control group) was co-cultured with 1×10^5 human fibroblasts in a cell culture plate containing 2 ml of cell culture medium (X-VIVO™ 10). Then, the samples to be tested for each of the group were added into corresponding culture plates according to Table 6, and were co-cultured with the human fibroblasts at 37° C. for 24 h. Control group was co-cultured for 24 h by a peptide-free culture medium under the same conditions.
Before the mitochondria activity test was performed, a JC-1 mitochondria coloring agent was prepared. Firstly, a 10× JC-1 buffer solution was preheated at 37° C., was then diluted into a 1× JC-1 buffer solution by a 1× phosphate buffer solution (PBS, purchased from Gibco), and was maintained at 37° C. after being uniformly mixed. 130 μl of dimethyl sulfoxide (DMSO) was added into a lyophilized JC-1 reagent to prepare a JC-1 stock solution. Then, the JC-1 stock solution was diluted 1000 folds by the 1× JC-1 buffer solution to prepare a JC-1 work solution.
After co-culture for 24 h, the cell culture medium in the culture plate was removed. The co-cultured cells were rinsed twice by PBS so as to remove the residual cell culture medium. The cells were trypsinized from the culture plate, and were collected into a 1.5 ml microcentrifuge tube to be centrifuged for 5 min at 400×g so as to form a primary supernatant and a primary cell precipitate. After the primary supernatant was removed, the primary cell precipitate was resuspended by PBS to form a primary cell solution. The primary cell solution was transferred into a 1.5 ml centrifuge tube to be centrifuged for 5 min at 400×g again so as to separate the primary cell solution into a secondary supernatant and a secondary cell precipitate. Then, after the secondary supernatant was removed, 100 μl of JC-1 work solution was added to the secondary cell precipitate and vortexed to form a secondary cell solution. The secondary cell solution was cultured in dark at a room temperature for 15 min.
After cultured dark, the secondary cell solution was centrifuged for 5 min at 400×g. […] Standard deviations of the results were calculated by an STDEV formula of Excel software, and statistically significant differences were analyzed by one-tailed student t-test in the Excel software. […]

[10] = tested on: CCT8 gene; assay: Anti-aging gene expression test in human fibroblasts (qPCR), CCT8 gene; conditions: 25 μg synthesized peptide per 1 ml medium, human fibroblasts (CCD-966SK), 24 h, 37° C.
Protocol: as §1, §2

Sequence | fold of upregulation of Atg8 gene expression vs Control group [1] [folds] | fold of upregulation of CCT7 gene expression vs Control group [2] [folds] | fold of upregulation of CCT5 gene expression vs Control group [3] [folds] | fold of upregulation of CCT6A gene expression vs Control group [4] [folds] | fold of upregulation of CCT2 gene expression vs Control group [5] [folds] | fold of upregulation of Pink1 gene expression vs Control group [6] [folds] | fold of upregulation of SIRT1 gene expression vs Control group [7] [folds] | fold of upregulation of Ubl-5 gene expression vs Control group [8] [folds] | improvement of mitochondria activities as compared with Control group ([9]; 10 μg peptide in 2 ml medium) [%] | fold of upregulation of CCT8 gene expression vs Control group [10] [folds] | improvement of mitochondria activities as compared with Control group ([9]; 25 μg peptide in 2 ml medium) [%]
DKPLIPEGP (listed as Pangasius bocourti) [SEQ ID NO: 5, synthesized peptide of Basa skin; Titin, tandem duplicate 2] | 5.13 | 7.92 | 6.03 | 5.47 | 5.86 | 5.85 | 6.62 | 5.24 | 26.7 | 6.88 | –
GPLGPIGPPGLP (listed as Pangasius bocourti) [SEQ ID NO: 6, synthesized peptide of Basa skin; Procollagen, type V, alpha I] | 4.28 | 7.89 | 6.76 | 5.28 | 5.71 | 6.42 | 6.52 | 5.16 | – | 6.43 | 68.9
NPGPHGQPGPPGP (listed as Pangasius bocourti) [SEQ ID NO: 4, synthesized peptide of Basa skin; Persistent plexus] | – | – | – | – | – | – | – | – | 32.9 | – | –
PGAPGSSGPKG (listed as Pangasius bocourti) [SEQ ID NO: 2, synthesized peptide of Basa skin; collagen, type XIV] | – | – | – | – | – | – | – | – | 32.7 | – | –
VAEGAQGNIGPA (listed as Pangasius bocourti) [SEQ ID NO: 3, synthesized peptide of Basa skin; Kinesin family member 21B] | – | – | – | – | – | – | – | – | 25.6 | – | –
